Test results as given in patent publication US3974168A, “Tricycle substituted acetones” (Yoshitomi Pharmaceutical Industries, Ltd., priority 1973, dated 1976).

Columns and labels:
[1] = test system: stretch symptoms induced by o-phenyl-p-benzoquinone; assay: Phenylquinone Method (analgesic action); type: in vivo, dd-strain male mice; settings: mice, stretch symptoms over 30 minutes
Method: Analgesic Action (Phenylquinone Method)
According to the method of Hendershot et al. (J. Pharmacol. Exptl. Therap., 125, 237 (1957)), to one group of six dd-strain male mice each weighing about 20 g a test solution containing a test compound was orally administered and 1 hour later 0.2 ml/20 g of body weight of 0.02% o-phenyl-p-benzoquinone solution was intraperitoneally injected. The frequency of stretch symptoms thus induced was measured for 30 minutes, and compared with that of a control group, and the inhibition percentage (effect) was calculated. Results: Carrageenin Edema Method Compound Dose (mg/kg) p.o. % inhibition ______________________________________ A 5 50 25 68 B 10 36 25 61 C 25 32 50 63 ______________________________________

[2] = test system: Carrageenin Edema; assay: Carrageenin Edema Method (anti-inflammatory action); type: in vivo, Donryu-strain male rats; settings: carrageenin paw edema, rats, 2 hours after phlogogen
Method: i. Carrageenin Edema Method
According to the method of Winter et al. (Proc. Soc. Exptl. Biol. Med., 111, 544 (1962)), to one group of five Donryu-strain male rats each weighing about 130 g a test solution containing a test compound was administered orally. One hour later 0.05 ml of 1% carrageenin solution as a phlogogenic substance was subcutaneously injected to the paw of the hind leg. And 2 hours after the administration of phlogogen the bulk of the paw was measured in order to obtain the increment percentage over that before administration. The ratio of bulk increment between a control group and a test group was calculated as inhibition percentage.

[3] = test system: Ultraviolet Erythema; assay: Ultraviolet Erythema Method (anti-inflammatory action); type: in vivo; settings: guinea pigs, 2 hours after irradiation, half dose 1 hour before and after
Method: ii. Ultraviolet Erythema Method
Using guinea pigs weighing 250-450 g, a rubber plate with 3 holes of 7 mm in diameter was fitted to the abdomen, hair of which had been removed in advance, and light was given by a mercury lamp (300 W) at the distance of 15 cm for 150 seconds. Two hours later the degree of erythema formation was marked according to the method of Winder et al. (Arch. Intern. Pharmacodyn., 116, 261 (1958)) and the efficacy rate was calculated, based on the criterion that 1.5 or less of total marks be effective. Half amount of the test solution was orally given 1 hour before and after the irradiation.

| SMILES | % inhibition ([1]; 25 mg/kg p.o.) [%] | % inhibition ([1]; 50 mg/kg p.o.) [%] | % inhibition ([2]; 25 mg/kg p.o.) [%] | % inhibition ([2]; 50 mg/kg p.o.) [%] | Animals with score of 1.5 or less / Total animals ([3]; 1 mg/kg p.o.) | Animals with score of 1.5 or less / Total animals ([3]; 5 mg/kg p.o.) | % inhibition ([1]; 0.5 mg/kg p.o.) [%] | % inhibition ([1]; 1 mg/kg p.o.) [%] | % inhibition ([2]; 10 mg/kg p.o.) [%] | Animals with score of 1.5 or less / Total animals ([3]; 100 mg/kg p.o.) | Animals with score of 1.5 or less / Total animals ([3]; 250 mg/kg p.o.) | % inhibition ([1]; 5 mg/kg p.o.) [%] | % inhibition ([1]; 10 mg/kg p.o.) [%] | % inhibition ([2]; 5 mg/kg p.o.) [%] | Animals with score of 1.5 or less / Total animals ([3]; 2.5 mg/kg p.o.) |
| --- | --- | --- | --- | --- | --- | --- | --- | --- | --- | --- | --- | --- | --- | --- | --- |
| CCC(=O)C(C)c1ccc2c(c1)Cc1cccnc1O2 (stereo not drawn) [C, 2-(5h-[1]benzopyrano[2,3-b]pyridin-7-yl)-3-pentanone] | 41.6 | 75.2 | 32 | 63 | 2/5 | 3/5 |  |  |  |  |  |  |  |  |  |
| CC(=O)C(C)c1ccc2c(c1)Cc1ccc(C)nc1O2 (stereo not drawn) [B, 3-(2-methyl-5H-[1]benzopyrano[2,3-b]pyridin-7-yl)-2-butanone] |  |  | 61 |  |  |  | 24.0 | 63.4 | 36 | 2/5 | 4/5 |  |  |  |  |
| CC(=O)C(C)c1ccc2c(c1)Cc1cccnc1O2 (stereo not drawn) [A, 3-(5h-[1]benzopyrano[2,3-b]pyridin-7-yl)-2-butanone] |  |  | 68 |  | 3/10 |  |  |  |  |  |  | 48.7 | 73.5 | 50 | 6/10 |
